Test results as given in US9403801B2 (Calitor Sciences, LLC, priority 2014, dated 2016).

Assays:
[1] = Compound stability in human liver microsomes; assay type: in vitro ADME; conditions: for half-life at 5 μM: compound 5 μM, NADPH 1.0 mM, 37° C.; for CLint scaled at 5 μM: in vivo CLint extrapolated
Procedure, shortened: (§1)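 LC/MS/MS read-out of parent remaining, as % of t=0, after 0, 5, 10, 15, 30 and 60 min at 37° C. Mix: microsomes 0.5 mg/mL, test compound 5 μM, NADPH 1.0 mM, phosphate pH 7.4. Denatured microsomes served as negative control. In vivo CLint extrapolated.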

[2] = Compound stability in rat liver microsomes; assay type: in vitro ADME
Procedure, shortened: as §1

[3] = biological target: JAK1 (h) (Homo sapiens (Human), UniProt P23458); assay: JAK1 kinase assay (33P-ATP filter binding, Millipore); assay type: biochemical
JAK1 (h), sequence (P23458 whole entry): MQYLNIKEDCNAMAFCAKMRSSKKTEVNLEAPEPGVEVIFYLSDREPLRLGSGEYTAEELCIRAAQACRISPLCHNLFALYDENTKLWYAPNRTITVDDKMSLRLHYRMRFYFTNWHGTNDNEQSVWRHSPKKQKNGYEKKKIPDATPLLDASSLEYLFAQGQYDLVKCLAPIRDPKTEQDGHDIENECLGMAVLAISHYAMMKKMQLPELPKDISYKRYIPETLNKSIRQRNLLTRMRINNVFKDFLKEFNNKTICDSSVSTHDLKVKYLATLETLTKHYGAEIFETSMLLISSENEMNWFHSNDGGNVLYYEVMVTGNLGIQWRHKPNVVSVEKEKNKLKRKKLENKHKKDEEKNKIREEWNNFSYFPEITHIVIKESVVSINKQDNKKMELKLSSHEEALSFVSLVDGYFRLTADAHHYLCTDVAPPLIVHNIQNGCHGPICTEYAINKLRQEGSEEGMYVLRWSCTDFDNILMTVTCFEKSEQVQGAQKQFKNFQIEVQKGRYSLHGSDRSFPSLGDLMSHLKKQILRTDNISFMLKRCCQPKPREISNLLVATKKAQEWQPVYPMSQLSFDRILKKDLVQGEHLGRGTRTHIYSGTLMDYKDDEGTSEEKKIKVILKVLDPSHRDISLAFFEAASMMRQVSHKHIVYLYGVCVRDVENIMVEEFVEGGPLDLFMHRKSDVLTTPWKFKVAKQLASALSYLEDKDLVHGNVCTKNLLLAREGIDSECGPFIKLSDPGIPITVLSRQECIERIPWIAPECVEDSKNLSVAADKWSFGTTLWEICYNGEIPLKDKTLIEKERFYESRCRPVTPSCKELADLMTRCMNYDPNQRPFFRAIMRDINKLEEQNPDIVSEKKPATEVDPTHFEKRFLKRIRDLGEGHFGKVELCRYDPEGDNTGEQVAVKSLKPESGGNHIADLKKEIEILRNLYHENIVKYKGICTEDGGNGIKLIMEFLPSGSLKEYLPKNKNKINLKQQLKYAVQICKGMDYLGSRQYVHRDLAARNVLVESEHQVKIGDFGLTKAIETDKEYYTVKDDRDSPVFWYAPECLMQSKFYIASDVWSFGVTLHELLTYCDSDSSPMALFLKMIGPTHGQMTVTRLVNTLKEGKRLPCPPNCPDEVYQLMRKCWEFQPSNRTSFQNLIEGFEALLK
Procedure, shortened: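 Radiometric assay of γ-33P-ATP incorporation into plate-immobilised MBP; kinase buffer pH 7.6 with 10 mM MgCl2, 10 μM unlabelled ATP typical, enzyme 10 or 20 nM final, 1% DMSO. Reactions ran 1 h at room temperature before scintillation counting. IC50 from 10-point half-log dilution curve, duplicates.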

[4] = biological target: JAK2 (h) (Homo sapiens (Human), UniProt O60674); assay: JAK2 kinase assay (33P-ATP filter binding, Millipore); assay type: biochemical
JAK2 (h), sequence (O60674 whole entry): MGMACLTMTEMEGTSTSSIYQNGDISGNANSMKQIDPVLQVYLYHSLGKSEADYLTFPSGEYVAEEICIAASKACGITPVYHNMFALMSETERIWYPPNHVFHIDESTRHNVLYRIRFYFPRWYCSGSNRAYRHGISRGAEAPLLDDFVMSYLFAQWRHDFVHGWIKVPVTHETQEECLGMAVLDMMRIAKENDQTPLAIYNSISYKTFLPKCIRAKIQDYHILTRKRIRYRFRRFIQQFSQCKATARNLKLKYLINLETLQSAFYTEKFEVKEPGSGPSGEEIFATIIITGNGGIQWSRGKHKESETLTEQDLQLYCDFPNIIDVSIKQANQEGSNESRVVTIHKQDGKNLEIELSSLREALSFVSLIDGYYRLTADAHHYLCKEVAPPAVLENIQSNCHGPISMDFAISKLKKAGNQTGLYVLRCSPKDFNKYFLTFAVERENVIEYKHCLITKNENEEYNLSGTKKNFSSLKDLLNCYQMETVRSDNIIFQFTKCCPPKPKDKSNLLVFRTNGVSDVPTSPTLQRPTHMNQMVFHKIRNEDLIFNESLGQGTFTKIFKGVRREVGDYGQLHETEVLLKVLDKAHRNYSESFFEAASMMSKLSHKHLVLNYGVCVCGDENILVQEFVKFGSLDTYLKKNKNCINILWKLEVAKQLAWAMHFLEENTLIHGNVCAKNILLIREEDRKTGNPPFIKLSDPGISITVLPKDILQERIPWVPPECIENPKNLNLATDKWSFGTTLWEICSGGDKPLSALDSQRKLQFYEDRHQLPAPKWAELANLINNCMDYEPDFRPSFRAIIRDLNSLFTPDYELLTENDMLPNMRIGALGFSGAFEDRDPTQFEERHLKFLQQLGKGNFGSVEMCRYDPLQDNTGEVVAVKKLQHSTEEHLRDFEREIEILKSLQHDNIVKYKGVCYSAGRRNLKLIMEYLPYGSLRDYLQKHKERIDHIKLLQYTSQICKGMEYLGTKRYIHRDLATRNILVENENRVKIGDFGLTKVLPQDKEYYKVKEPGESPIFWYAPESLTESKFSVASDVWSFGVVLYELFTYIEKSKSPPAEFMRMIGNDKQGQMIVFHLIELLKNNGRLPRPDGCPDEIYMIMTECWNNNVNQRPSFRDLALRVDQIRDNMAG
Procedure: (§2) Kinase assays can be performed by measurement of incorporation of γ-^33P ATP into immobilized myelin basic protein (MBP). High binding white 384 well plates (Greiner) are coated with MBP (Sigma #M−1891) by incubation of 60 μL/well of 20 μg/mL MBP in Tris-buffered saline (TBS; 50 mM Tris pH 8.0, 138 mM NaCl, 2.7 mM KCl) for 24 h at 4° C. Plates are washed 3× with 100 μL TBS. Kinase reactions are carried out in a total volume of 34 μL in kinase buffer (5 mM Hepes pH 7.6, 15 mM NaCl, 0.01% bovine gamma globulin (Sigma #I-5506), 10 mM MgCl2, 1 mM DTT, 0.02% TritonX-100). Compound dilutions are performed in DMSO and added to assay wells to a final DMSO concentration of 1%. Each data point is measured in duplicate, and at least two duplicate assays are performed for each individual compound determination. Enzyme is added to final concentrations of 10 nM or 20 nM, for example. A mixture of unlabeled ATP and γ-^33P ATP is added to start the reaction (2×10^6 cpm of γ-^33P ATP per well (3000 Ci/mmole) and 10 μM unlabeled ATP, typically. The reactions are carried out for 1 h at room temperature with shaking. Plates are washed 7× with TBS, followed by the addition of 50 μL/well scintillation fluid (Wallac). Plates are read using a Wallac Trilux counter. This is only one format of such assays; various other formats are possible, as known to one skilled in the art.
(§3) The above assay procedure can be used to determine the IC50 for inhibition and/or the inhibition constant, Ki. The IC50 is defined as the concentration of compound required to reduce the enzyme activity by 50% under the condition of the assay. The IC50 value is estimated by preparing a 10 point curve using a 1/2 log dilution series (for example, a typical curve may be prepared using the following compound concentrations: 3 μM, 1 μM, 0.3 μM, 0.1 μM, 0.03 μM, 0.01 μM, 0.003 μM, 0.001 μM, 0.0003 μM and 0 μM).
(§4) The kinase assays described herein were performed at Millipore UK Ltd, Dundee Technology Park, Dundee DD2 1SW, UK.

[5] = biological target: JAK3 (h) (Homo sapiens (Human), UniProt P52333); assay: JAK3 kinase assay (33P-ATP filter binding, Millipore); assay type: biochemical
JAK3 (h), sequence (P52333 whole entry): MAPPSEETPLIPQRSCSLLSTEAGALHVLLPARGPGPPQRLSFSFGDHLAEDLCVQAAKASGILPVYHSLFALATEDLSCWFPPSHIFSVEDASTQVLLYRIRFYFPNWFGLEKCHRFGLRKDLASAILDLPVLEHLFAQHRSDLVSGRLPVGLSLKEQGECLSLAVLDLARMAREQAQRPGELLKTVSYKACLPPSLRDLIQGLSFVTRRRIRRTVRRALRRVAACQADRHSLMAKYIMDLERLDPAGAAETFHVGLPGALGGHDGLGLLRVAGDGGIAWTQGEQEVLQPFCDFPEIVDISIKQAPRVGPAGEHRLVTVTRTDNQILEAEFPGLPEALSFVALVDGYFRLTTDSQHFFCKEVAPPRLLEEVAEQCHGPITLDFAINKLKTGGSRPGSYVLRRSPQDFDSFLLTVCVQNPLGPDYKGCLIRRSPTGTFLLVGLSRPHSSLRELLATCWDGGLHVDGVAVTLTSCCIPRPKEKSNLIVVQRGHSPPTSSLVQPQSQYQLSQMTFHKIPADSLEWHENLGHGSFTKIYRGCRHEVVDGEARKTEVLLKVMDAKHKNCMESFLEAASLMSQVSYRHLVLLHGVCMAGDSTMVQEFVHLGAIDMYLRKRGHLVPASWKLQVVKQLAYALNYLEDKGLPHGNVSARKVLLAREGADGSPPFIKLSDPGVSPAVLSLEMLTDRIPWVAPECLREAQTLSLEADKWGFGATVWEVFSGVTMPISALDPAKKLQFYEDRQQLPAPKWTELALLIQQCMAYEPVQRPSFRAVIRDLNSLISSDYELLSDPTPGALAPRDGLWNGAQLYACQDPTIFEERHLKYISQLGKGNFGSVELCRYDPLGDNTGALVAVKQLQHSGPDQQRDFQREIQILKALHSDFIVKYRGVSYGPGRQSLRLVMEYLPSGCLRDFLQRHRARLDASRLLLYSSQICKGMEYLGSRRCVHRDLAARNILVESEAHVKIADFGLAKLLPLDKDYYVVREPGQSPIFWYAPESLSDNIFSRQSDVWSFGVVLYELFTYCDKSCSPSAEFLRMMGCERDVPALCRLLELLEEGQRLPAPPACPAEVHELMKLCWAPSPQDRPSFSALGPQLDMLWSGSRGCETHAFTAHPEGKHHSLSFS
Procedure: as §2, §3, §4

[6] = biological target: TYK2 (h) (Homo sapiens (Human), UniProt P29597); assay: TYK2 kinase assay (33P-ATP filter binding, Millipore); assay type: biochemical
TYK2 (h), sequence (P29597 whole entry): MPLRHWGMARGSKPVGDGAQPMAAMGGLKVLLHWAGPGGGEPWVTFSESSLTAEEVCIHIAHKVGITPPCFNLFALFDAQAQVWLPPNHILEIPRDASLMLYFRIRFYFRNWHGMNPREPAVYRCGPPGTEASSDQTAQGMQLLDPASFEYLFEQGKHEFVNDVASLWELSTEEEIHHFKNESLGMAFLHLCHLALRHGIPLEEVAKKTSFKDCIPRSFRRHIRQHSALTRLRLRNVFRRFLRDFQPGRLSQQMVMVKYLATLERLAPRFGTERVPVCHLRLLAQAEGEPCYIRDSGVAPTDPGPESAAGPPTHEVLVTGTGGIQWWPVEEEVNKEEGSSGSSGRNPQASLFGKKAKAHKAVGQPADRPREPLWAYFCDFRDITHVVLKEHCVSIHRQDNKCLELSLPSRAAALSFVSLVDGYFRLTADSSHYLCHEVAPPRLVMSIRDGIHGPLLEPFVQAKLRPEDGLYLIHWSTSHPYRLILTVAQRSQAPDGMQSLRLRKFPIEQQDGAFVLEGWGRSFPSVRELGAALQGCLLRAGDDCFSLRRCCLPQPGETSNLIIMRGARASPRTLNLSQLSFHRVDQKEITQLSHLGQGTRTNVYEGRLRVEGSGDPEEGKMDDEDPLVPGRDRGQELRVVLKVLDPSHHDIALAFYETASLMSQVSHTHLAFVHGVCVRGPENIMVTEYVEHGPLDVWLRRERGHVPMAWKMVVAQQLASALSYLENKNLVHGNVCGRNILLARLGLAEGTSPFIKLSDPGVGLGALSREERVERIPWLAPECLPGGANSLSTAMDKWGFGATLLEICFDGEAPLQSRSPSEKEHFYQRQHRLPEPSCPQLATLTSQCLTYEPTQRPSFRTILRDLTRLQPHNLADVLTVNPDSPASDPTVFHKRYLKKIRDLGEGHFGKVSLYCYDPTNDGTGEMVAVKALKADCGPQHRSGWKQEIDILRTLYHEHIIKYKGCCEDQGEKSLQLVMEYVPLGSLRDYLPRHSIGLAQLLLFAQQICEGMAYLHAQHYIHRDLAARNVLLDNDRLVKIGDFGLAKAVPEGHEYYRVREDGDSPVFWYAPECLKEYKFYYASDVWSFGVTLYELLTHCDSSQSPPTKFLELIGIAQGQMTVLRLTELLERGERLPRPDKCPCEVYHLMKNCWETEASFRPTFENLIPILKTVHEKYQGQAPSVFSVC
Procedure: as §2, §3, §4

[7] = Pharmacokinetics after intravenous and oral administration in rats; assay type: in vivo; conditions: for Clearance (CL) after iv dosing / AUC(0-t) / half-life / Vd: dose 1 mg/kg (Ex. 27: 0.72 mg/kg), iv dosing; for F: oral bioavailability; for AUC(0-t) / half-life / Vd: rat, plasma; for Vd: read-out: Vss
Procedure, shortened: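 Rats were dosed 1 or 2 mg/kg IV or 5 or 10 mg/kg orally, as water solution, HPMC/Tween 80, DMSO/saline, MC suspension or capsule. Plasma was sampled from 0.083 or 0.25 h up to 24 h and quantified by LC/MS/MS in MRM mode with ESI.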

[8] = biological target: Aurora-A (h) (Homo sapiens (Human), UniProt O14965); assay: Aurora-A kinase assay (33P-ATP filter binding, Millipore); assay type: biochemical
Aurora-A (h), sequence (O14965 whole entry): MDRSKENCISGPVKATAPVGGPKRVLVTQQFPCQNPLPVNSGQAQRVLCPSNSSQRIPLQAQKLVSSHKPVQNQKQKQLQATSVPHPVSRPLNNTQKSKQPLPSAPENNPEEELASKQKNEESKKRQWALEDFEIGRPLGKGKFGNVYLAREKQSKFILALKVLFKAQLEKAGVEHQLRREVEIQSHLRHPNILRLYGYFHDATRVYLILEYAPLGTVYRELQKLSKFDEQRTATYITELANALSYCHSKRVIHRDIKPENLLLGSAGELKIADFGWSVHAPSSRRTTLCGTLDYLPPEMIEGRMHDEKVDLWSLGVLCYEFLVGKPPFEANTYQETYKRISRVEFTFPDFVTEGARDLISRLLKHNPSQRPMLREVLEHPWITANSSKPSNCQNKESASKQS
Procedure: as §2, with “art. […]” for “art.”

[9] = biological target: FLT3 (h) (Homo sapiens (Human), UniProt P36888); assay: FLT3 kinase assay (33P-ATP filter binding, Millipore); assay type: biochemical
Procedure: as §2, with “art. […]” for “art.”

[10] = human, liver microsomes, pH 7.4, Human liver microsomes 0.5 mg protein/mL
[11] = human, liver microsomes, pH 7.4, Human liver microsomes
[12] = pH 7.4, Human liver microsomes 0.5 mg protein/mL
[13] = pH 7.4, Rat liver microsomes 0.5 mg protein/mL, compound 5 μM, NADPH 1.0 mM, 37° C.
[14] = pH 7.4, Rat liver microsomes, in vivo CLint extrapolated

| Compound | IC50 [3] | IC50 [4] | Clearance (CL) after iv dosing [7] | F [7] | AUC(0-t) [7] | half-life [7] | Vd [7] | half-life at 5 μM [1, 12] | CLint scaled at 5 μM ([1]; pH 7.4, Human liver microsomes) | half-life at 5 μM [2, 13] | CLint scaled at 5 μM [2, 14] | half-life at 5 μM [1, 10] | CLint scaled at 5 μM [1, 11] | IC50 [5] | IC50 [6] | IC50 [8] | IC50 [9] | also measured |
| --- | --- | --- | --- | --- | --- | --- | --- | --- | --- | --- | --- | --- | --- | --- | --- | --- | --- | --- |
| Cn1cc(Nc2ncc(Cl)c(NC3CCC4(CC3)CCN(C(=O)CC#N)C4)n2)cn1 (single isomer, unassigned) [Ex. 14A, 3-(8-((5-chloro-2-((1-methyl-1H-pyrazol-4-yl)amino)pyrimidin-4-yl)amino)-2-azaspiro[4.5]decan-2-yl)-3-oxopropanenitrile] | 0.8 nM | 5 nM | – | – | – | – | – | – | – | – | – | 203 min | 8.55 mL/min/kg | 39 nM | 1 nM | – | – | T1/2 ([2]; Rat liver microsomes 0.5 mg protein/mL, compound 5 μM, NADPH 1.0 mM, 37° C.): 10.60 min; CLint ([2]; Rat liver microsomes, in vivo CLint extrapolated): 234.31 mL/min/kg |
| CC(=O)N1CCC2(CCC(Nc3nc(Nc4cnn(C)c4)ncc3Cl)CC2)CC1 [Ex. 28, 1-(9-((5-chloro-2-((1-methyl-1H-pyrazol-4-yl)amino)pyrimidin-4-yl)amino)-3-azaspiro[5.5]undecan-3-yl)ethanone] | 0.9 nM | 4 nM | 71 mL/min/kg | 63.6% | 251 ng·h/mL | 39 min | 3.06 L/kg | – | – | – | – | 268 min | 6.49 mL/min/kg | 47 nM | 4 nM | 22 nM | 16 nM | half-life at 5 μM ([2]; rat, liver microsomes, pH 7.4, Rat liver microsomes 0.5 mg protein/mL, compound 5 μM, NADPH 1.0 mM, 37° C.): 73.6 min; CLint scaled at 5 μM ([2]; rat, liver microsomes, pH 7.4, Rat liver microsomes, in vivo CLint extrapolated): 33.8 mL/min/kg |
| Cn1cc(Nc2ncc(Cl)c(NC3CCC4CN(C(=O)CC#N)CC4C3)n2)cn1 (centres unmarked) [Ex. 22, 3-(5-((5-chloro-2-((1-methyl-1H-pyrazol-4-yl)amino)pyrimidin-4-yl)amino)hexahydro-1H-isoindol-2(3H)-yl)-3-oxopropanenitrile] | 2 nM | 6 nM | 94.8 mL/min/kg | 22.6% | 176 ng·h/mL | 25.8 min | 2.02 L/kg | 158 min | 11 mL/min/kg | 12.2 min | 204 mL/min/kg | – | – | – | – | – | – | – |

More lines, main results first:

| IC50 [3] | IC50 [4] | Clearance (CL) after iv dosing [7] | F [7] | AUC(0-t) [7] | half-life [7] | Vd [7] | half-life at 5 μM [1, 12] | CLint scaled at 5 μM ([1]; pH 7.4, Human liver microsomes) | half-life at 5 μM [2, 13] | CLint scaled at 5 μM [2, 14] | Compound | half-life at 5 μM [1, 10] | CLint scaled at 5 μM [1, 11] | IC50 [5] | IC50 [6] | IC50 [8] | IC50 [9] | also measured |
| --- | --- | --- | --- | --- | --- | --- | --- | --- | --- | --- | --- | --- | --- | --- | --- | --- | --- | --- |
| 1 nM | 18 nM | 121 mL/min/kg | 39.2% | 143 ng·h/mL | 14.4 min | 1.75 L/kg | 187 min | 9.3 mL/min/kg | 12 min | 208 mL/min/kg | Cn1cc(Nc2ncc(Cl)c(NC3CC4CN(C(=O)CC#N)CC4C3)n2)cn1 (centres unmarked) [Ex. 12, 3-(5-((5-chloro-2-((1-methyl-1H-pyrazol-4-yl)amino)pyrimidin-4-yl)amino)hexahydrocyclopenta[c]pyrrol-2(1H)-yl)-3-oxopropanenitrile] | – | – | 359 nM | 7 nM | – | – | – |
| 1 nM | 12 nM | 61.2 mL/min/kg | 25.7% | 272 ng·h/mL | 39.6 min | 2.06 L/kg | 67.2 min | 25.9 mL/min/kg | 13.2 min | 188 mL/min/kg | Cn1cc(Nc2ncc(Cl)c(NC3CC4CN(S(C)(=O)=O)CC4C3)n2)cn1 (centres unmarked) [Ex. 31, 5-chloro-N^2-(1-methyl-1H-pyrazol-4-yl)-N^4-(2-(methylsulfonyl)octahydrocyclopenta[c]pyrrol-5-yl)pyrimidine-2,4-diamine] | – | – | 178 nM | 18 nM | 4 nM | 134 nM | – |
